Target: T1, recombinant Drosophila melanogaster ryanodine receptors (expressed in Sf9 cells) (Drosophila melanogaster, UniProt Q24498)
T1 construct: expressed in transfected cells
Type: cell-based
Conditions: receptor expressed in Sf9 cells
Protocol: The Spodoptera frugiperda cell line Sf9 used for transfection studies, was maintained in Sf-900 II SFM medium (Invitrogen Life Technologies™, Carlsbad, Calif.) in T-75 flasks incubated at 27° C. It is understood that those skilled in the art might choose alternative cell types such as the Spodoptera frugiperda cell line Sf21 or the Drosophila cell line S2. For the purpose of general handling and propagation, cells were suspended through scraping or agitation and a volume of cell suspension was added to each well of a poly-L-lysine coated 96-well, glass-bottom plate so as to provide 70-80% confluence. Cells were maintained in an incubator at 27° C. until testing.
SF900-II media was used to bring the final volume in the dish to 2 ml and the cells were incubated at 27 degrees C. for 21 h. Following the incubation the media was aspirated from the dish and replaced with 1 ml of SF900-II media pre-warmed to 27 degrees C.
The transient transfection was carried out following an InsectSelect BSD System manual (Invitrogen Life Technologies™, Carlsbad, Calif.). […] The transfection was accomplished by adding the transfection solution drop-wise to the dish and incubating 4 h at room temperature with gentle rocking. […]
Several drops of a suspension of recombinant Spodoptera frugiperda cell line, Sf9, transiently expressing insect ryanodine receptors were placed on a poly-L-lysine-coated coverslip and allowed to attach. Cells were then rinsed in physiological saline having the following composition (mM): NaCl 130; KCl 5.4; MgCl2 1.2; CaCl2 1.0; NaHCO3 4.2; NaH2P04 7.3; Glucose 10; Sucrose 63; MES 20; pH 6.3. Cells were then bathed in physiological saline containing the calcium sensitive fluoroprobe, Fura-2 AM (2 μM), and Pluronic F127 (0.002%) for 30 min. Cells were rinsed in standard physiological saline for at least 15 min prior to testing. Testing was conducted in standard physiological saline, as the cell lines are devoid of functional voltage-gated calcium channels.
Cell-attached coverslips were placed in a sealed chamber with physiological saline continuously perfused across the cells using a peristaltic pump. Test compounds solubilized in physiological saline were applied by switching the perfusate source.
For studies involving the stable recombinant Spodoptera frugiperda cell line, Sf9, (other cell lines could also be used such as Sf21, S2, etc) expressing an insect ryanodine receptor from Drosophila melanogaster, or Heliothis virescens (alternatively receptors from other species such as Myzus persicae, Peregrinus maidis, Aphis gossypii, etc) were grown in T75 (or other appropriate sized) flasks in supplemented Grace's insect medium. Cells were maintained in an incubator at 22° C. until testing. Cells were suspension-loaded with the calcium sensitive fluoroprobe, Fura-2 AM (1-2 μM) and Pluronic F127 (0.002%) in culture medium for 30 minutes under agitation. Cells were then centrifuged and the pellet resuspended in physiological saline having the following composition (mM): NaCl 130; KCl 5.4; MgCl2 1.2; CaCl2 1.0; NaHCO3 4.2; NaH2P04 7.3; Glucose 10; Sucrose 63; MES 20; pH 6.3 at approximately 150,000-200,000 cells per well (96-well plate). After a 30 minute equilibration period the cell plate was tested using a Molecular Devices' FlexStation™ system with dual wavelength excitation (340 and 380 nm) and fluorescence emission measured at 510 nm. Test and control samples were added using integrated fluidics and the intracellular calcium monitored over a 2 minute period.

CNC(=O)c1cc(Cl)cc(C)c1NC(=O)c1cc(Br)nn1-c1ncccc1Cl [Cpd 14] was tested, and the “Calcium Release Threshold (nM) D. melanogaster” value was under 300 nM.
